Results: patent US9693556B2, “Herbicidal pyridazinone derivatives” (SYNGENTA LIMITED, priority 2011, dated 2017)

Tests used:
Assay type in all cases: in vivo
[1] = test system: Ipomoea hederacea (IPOHE); assay: Pre-emergence herbicidal glasshouse test on Ipomoea hederacea; conditions: pre-emergence; 1000 g/h; evaluated after 13 days
How it was run: (§1)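 Read-out: percentage herbicidal damage 13 days after spraying, given on a five-point scale (5=80-100%, 4=60-79%, 3=40-59%, 2=20-39%, 1=0-19%). Pots of standard soil; application at 1000 g/h, one day post-sowing for pre-emergence, eight days for post-emergence.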

[2] = test system: Alopecurus myosuroides (ALOMY); assay: Pre-emergence herbicidal glasshouse test on Alopecurus myosuroides; conditions: pre-emergence; 1000 g/h; evaluated after 13 days
How it was run: as §1

[3] = test system: Alopecurus myosuroides (ALOMY); assay: Post-emergence herbicidal glasshouse test on Alopecurus myosuroides; conditions: post-emergence; 1000 g/h; evaluated after 13 days
How it was run: as §1

Setaria faberi (SETFA) [4] = assay: Pre-emergence herbicidal glasshouse test on Setaria faberi; conditions: pre-emergence; 1000 g/h; evaluated after 13 days
How it was run: as §1

Solanum nigrum (SOLNI) [5] = assay: Post-emergence herbicidal glasshouse test on Solanum nigrum; conditions: post-emergence; 1000 g/h; evaluated after 13 days
How it was run: as §1

[6] = test system: Amaranthus retoflexus (AMARE); assay: Pre-emergence herbicidal glasshouse test on Amaranthus retoflexus; conditions: pre-emergence; 1000 g/h; evaluated after 13 days
How it was run: as §1

[7] = test system: Echinochloa crus-galli (ECHCG); assay: Pre-emergence herbicidal glasshouse test on Echinochloa crus-galli; conditions: pre-emergence; 1000 g/h; evaluated after 13 days
How it was run: as §1

Solanum nigrum (SOLNI) [8] = assay: Pre-emergence herbicidal glasshouse test on Solanum nigrum; conditions: pre-emergence; 1000 g/h; evaluated after 13 days
How it was run: as §1

[9] = test system: Amaranthus retoflexus (AMARE); assay: Post-emergence herbicidal glasshouse test on Amaranthus retoflexus; conditions: post-emergence; 1000 g/h; evaluated after 13 days
How it was run: as §1

[10] = test system: Echinochloa crus-galli (ECHCG); assay: Post-emergence herbicidal glasshouse test on Echinochloa crus-galli; conditions: post-emergence; 1000 g/h; evaluated after 13 days
How it was run: as §1

Setaria faberi (SETFA) [11] = assay: Post-emergence herbicidal glasshouse test on Setaria faberi; conditions: post-emergence; 1000 g/h; evaluated after 13 days
How it was run: as §1

[12] = test system: Ipomoea hederacea (IPOHE); assay: Post-emergence herbicidal glasshouse test on Ipomoea hederacea; conditions: post-emergence; 1000 g/h; evaluated after 13 days
How it was run: as §1

| SMILES | PRE Application IPOHE herbicidal damage (five point scale) [1] | PRE Application ALOMY herbicidal damage (five point scale) [2] | POST Application ALOMY herbicidal damage (five point scale) [3] | PRE Application SETFA herbicidal damage (five point scale) (Setaria faberi (SETFA) [4]) | POST Application SOLNI herbicidal damage (five point scale) (Solanum nigrum (SOLNI) [5]) | PRE Application AMARE herbicidal damage (five point scale) [6] | PRE Application ECHCG herbicidal damage (five point scale) [7] | PRE Application SOLNI herbicidal damage (five point scale) (Solanum nigrum (SOLNI) [8]) | POST Application AMARE herbicidal damage (five point scale) [9] | POST Application ECHCG herbicidal damage (five point scale) [10] | POST Application SETFA herbicidal damage (five point scale) (Setaria faberi (SETFA) [11]) | POST Application IPOHE herbicidal damage (five point scale) [12] |
| --- | --- | --- | --- | --- | --- | --- | --- | --- | --- | --- | --- | --- |
| CC(C)(C)n1ncc(-c2c(Cl)cccc2Cl)c(O)c1=O [Compound 1.133] | 1 (1=0-19% damage) | 1 (1=0-19% damage) | 1 (1=0-19% damage) | 1 (1=0-19% damage) | 2 (2=20-39% damage) | 1 (1=0-19% damage) | 1 (1=0-19% damage) | 1 (1=0-19% damage) | 1 (1=0-19% damage) | 3 (3=40-59% damage) | 1 (1=0-19% damage) | 2 (2=20-39% damage) |
| CN(C)c1nc(C(F)(F)F)ccc1-c1cnn(C)c(=O)c1O [Compound 1.134] | 2 (2=20-39% damage) | 1 (1=0-19% damage) | 1 (1=0-19% damage) | 1 (1=0-19% damage) | 5 (5=80-100% damage) | 5 (5=80-100% damage) | 1 (1=0-19% damage) | 5 (5=80-100% damage) | 5 (5=80-100% damage) | 2 (2=20-39% damage) | 2 (2=20-39% damage) | 5 (5=80-100% damage) |
| CCS(=O)(=O)c1nc(C(F)(F)F)ccc1-c1cnn(C)c(=O)c1O [Compound 1.135] | 5 (5=80-100% damage) | 4 (4=60-79% damage) | 4 (4=60-79% damage) | 5 (5=80-100% damage) | 5 (5=80-100% damage) | 5 (5=80-100% damage) | 5 (5=80-100% damage) | 5 (5=80-100% damage) | 5 (5=80-100% damage) | 5 (5=80-100% damage) | 5 (5=80-100% damage) | 5 (5=80-100% damage) |
| Cn1ncc(-c2ccc(S(C)(=O)=O)c(OCC(F)(F)F)c2Cl)c(O)c1=O [Compound 1.137] | 1 (1=0-19% damage) | 1 (1=0-19% damage) | 1 (1=0-19% damage) | 1 (1=0-19% damage) | 5 (5=80-100% damage) | 2 (2=20-39% damage) | 1 (1=0-19% damage) | 3 (3=40-59% damage) | 5 (5=80-100% damage) | 5 (5=80-100% damage) | 5 (5=80-100% damage) | 5 (5=80-100% damage) |
| Cn1ncc(-c2cccn(-c3cccc(C#N)c3)c2=O)c(O)c1=O [Compound 1.138] | 1 (1=0-19% damage) | 1 (1=0-19% damage) | 1 (1=0-19% damage) | 1 (1=0-19% damage) | 5 (5=80-100% damage) | 1 (1=0-19% damage) | 1 (1=0-19% damage) | 1 (1=0-19% damage) | 5 (5=80-100% damage) | 4 (4=60-79% damage) | 5 (5=80-100% damage) | 1 (1=0-19% damage) |
| C=C(C)c1ccc(-c2cnn(C)c(=O)c2O)c(S(C)(=O)=O)c1 [Compound 1.140] | 2 (2=20-39% damage) | 5 (5=80-100% damage) | 5 (5=80-100% damage) | 1 (1=0-19% damage) | 5 (5=80-100% damage) | 5 (5=80-100% damage) | 5 (5=80-100% damage) | 5 (5=80-100% damage) | 5 (5=80-100% damage) | 5 (5=80-100% damage) | 3 (3=40-59% damage) | 5 (5=80-100% damage) |
| Cn1ncc(-c2ccc(C#N)cc2S(C)(=O)=O)c(O)c1=O [Compound 1.141] | 5 (5=80-100% damage) | 5 (5=80-100% damage) | 5 (5=80-100% damage) | 5 (5=80-100% damage) | 5 (5=80-100% damage) | 5 (5=80-100% damage) | 5 (5=80-100% damage) | 5 (5=80-100% damage) | 5 (5=80-100% damage) | 5 (5=80-100% damage) | 5 (5=80-100% damage) | 5 (5=80-100% damage) |
| Cn1ncc(-c2cccn(-c3cccc(Cl)c3)c2=O)c(O)c1=O [Compound 1.143] | 1 (1=0-19% damage) | 2 (2=20-39% damage) | 2 (2=20-39% damage) | 1 (1=0-19% damage) | 4 (4=60-79% damage) | 3 (3=40-59% damage) | 1 (1=0-19% damage) | 1 (1=0-19% damage) | 1 (1=0-19% damage) | 2 (2=20-39% damage) | 1 (1=0-19% damage) | 1 (1=0-19% damage) |
| COCn1ncc(-c2ccccc2S(C)(=O)=O)c(O)c1=O [Compound 1.144] | 4 (4=60-79% damage) | 5 (5=80-100% damage) | 5 (5=80-100% damage) | 4 (4=60-79% damage) | 5 (5=80-100% damage) | 5 (5=80-100% damage) | 5 (5=80-100% damage) | 5 (5=80-100% damage) | 5 (5=80-100% damage) | 5 (5=80-100% damage) | 5 (5=80-100% damage) | 5 (5=80-100% damage) |
| COCn1ncc(-c2ccccc2[S+](C)[O-])c(O)c1=O (stereo not drawn) [Compound 1.145] | 1 (1=0-19% damage) | 1 (1=0-19% damage) | 3 (3=40-59% damage) | 2 (2=20-39% damage) | 5 (5=80-100% damage) | 5 (5=80-100% damage) | 4 (4=60-79% damage) | 2 (2=20-39% damage) | 5 (5=80-100% damage) | 5 (5=80-100% damage) | 5 (5=80-100% damage) | 5 (5=80-100% damage) |
